Laboratory results taken from PubChem BioAssay (NCI).
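Five concentrations, 48 hours, 96-well plates. The concentration for full growth arrest is given as TGI.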

Assays:
Assay in all cases: inhibition of tumour cell growth, NCI panel, 48 h
A549 NSCLC = tested on: A549 NSCLC
U251 CNS = tested on: U251 CNS
SF-268 CNS = tested on: SF-268 CNS
LOX IMVI melanoma = tested on: LOX IMVI melanoma
ACHN renal = tested on: ACHN renal
NCI-H522 lung = tested on: NCI-H522 lung
T-47D breast = tested on: T-47D breast
CCRF-CEM leukemia = tested on: CCRF-CEM leukemia
HCT-15 colon = tested on: HCT-15 colon
RPMI-8226 leukemia = tested on: RPMI-8226 leukemia
MDA-MB-231 breast = tested on: MDA-MB-231 breast
SF-295 CNS = tested on: SF-295 CNS
MALME-3M melanoma = tested on: MALME-3M melanoma
OVCAR-5 ovarian = tested on: OVCAR-5 ovarian
IGROV1 ovarian = tested on: IGROV1 ovarian
HS 578T breast = tested on: HS 578T breast
MCF7 breast = tested on: MCF7 breast
EKVX NSCLC = tested on: EKVX NSCLC
K-562 leukemia = tested on: K-562 leukemia
UACC-62 melanoma = tested on: UACC-62 melanoma
KM12 colon = tested on: KM12 colon
PC-3 prostate = tested on: PC-3 prostate
OVCAR-4 ovarian = tested on: OVCAR-4 ovarian
OVCAR-3 ovarian = tested on: OVCAR-3 ovarian
BT-549 breast = tested on: BT-549 breast
HCT-116 colon = tested on: HCT-116 colon
SK-MEL-5 melanoma = tested on: SK-MEL-5 melanoma
SK-MEL-2 melanoma = tested on: SK-MEL-2 melanoma
SW-620 colon = tested on: SW-620 colon
NCI-H23 lung = tested on: NCI-H23 lung
MDA-N = tested on: MDA-N
OVCAR-8 ovarian = tested on: OVCAR-8 ovarian
TK-10 renal = tested on: TK-10 renal
MDA-MB-435 = tested on: MDA-MB-435
M14 melanoma = tested on: M14 melanoma
HT29 colon = tested on: HT29 colon
HCC-2998 colon = tested on: HCC-2998 colon
A498 renal = tested on: A498 renal
SNB-19 CNS = tested on: SNB-19 CNS
DU-145 prostate = tested on: DU-145 prostate
786-0 renal = tested on: 786-0 renal
MOLT-4 leukemia = tested on: MOLT-4 leukemia
SN12C renal = tested on: SN12C renal
UO-31 renal = tested on: UO-31 renal
RXF 393 renal = tested on: RXF 393 renal
UACC-257 melanoma = tested on: UACC-257 melanoma
HOP-62 NSCLC = tested on: HOP-62 NSCLC
SNB-75 CNS = tested on: SNB-75 CNS
NCI-H226 lung = tested on: NCI-H226 lung
CAKI-1 renal = tested on: CAKI-1 renal
COLO 205 colon = tested on: COLO 205 colon
SK-MEL-28 melanoma = tested on: SK-MEL-28 melanoma
HOP-92 NSCLC = tested on: HOP-92 NSCLC
NCI/ADR-RES ovarian = tested on: NCI/ADR-RES ovarian
NCI-H460 lung = tested on: NCI-H460 lung
SK-OV-3 ovarian = tested on: SK-OV-3 ovarian
SF-539 CNS = tested on: SF-539 CNS

How did the TGI (A549 NSCLC) turn out when `CCN(CC)C(=S)/N=C(\SC(=S)N(CC)CC)c1ccccc1` was run?
The TGI was over 100 µM.

What about the TGI (U251 CNS) of the same molecule?
Its TGI is over 100 µM.

What about the TGI (SF-268 CNS) of the same molecule?
The TGI was over 100 µM.

And the TGI (LOX IMVI melanoma)?
Its TGI is 36.1 µM.

What about the TGI (ACHN renal) of the same molecule?
Its TGI is over 100 µM.

And the TGI (NCI-H522 lung)?
Its TGI is 3.39 µM.

And the TGI (T-47D breast)?
The TGI was over 100 µM.

What about the TGI (CCRF-CEM leukemia) of the same molecule?
The TGI was over 100 µM.

And the TGI (HCT-15 colon)?
The TGI was over 100 µM.

What about the TGI (RPMI-8226 leukemia) of the same molecule?
Its TGI is over 96.1 µM.

And the TGI (MDA-MB-231 breast)?
Its TGI is over 25.7 µM.

And the TGI (SF-295 CNS)?
The TGI was over 100 µM.

What about the TGI (MALME-3M melanoma) of the same molecule?
Its TGI is over 100 µM.

And the TGI (OVCAR-5 ovarian)?
Its TGI is over 100 µM.

What about the TGI (IGROV1 ovarian) of the same molecule?
The TGI was over 100 µM.

What about the TGI (HS 578T breast) of the same molecule?
The TGI was over 100 µM.

And the TGI (MCF7 breast)?
The TGI was over 100 µM.

And the TGI (EKVX NSCLC)?
Its TGI is over 100 µM.

And the TGI (K-562 leukemia)?
The TGI was over 100 µM.

What about the TGI (UACC-62 melanoma) of the same molecule?
Its TGI is over 100 µM.

What about the TGI (KM12 colon) of the same molecule?
Its TGI is over 44.1 µM.

What about the TGI (PC-3 prostate) of the same molecule?
The TGI was over 100 µM.

And the TGI (OVCAR-4 ovarian)?
The TGI was over 100 µM.

What about the TGI (OVCAR-3 ovarian) of the same molecule?
Its TGI is over 100 µM.

And the TGI (BT-549 breast)?
The TGI was over 100 µM.

And the TGI (HCT-116 colon)?
The TGI was 20.9 µM.

And the TGI (SK-MEL-5 melanoma)?
Its TGI is over 100 µM.

And the TGI (SK-MEL-2 melanoma)?
The TGI was over 100 µM.

What about the TGI (SW-620 colon) of the same molecule?
Its TGI is over 100 µM.

And the TGI (NCI-H23 lung)?
The TGI was over 100 µM.

And the TGI (MDA-N)?
The TGI was over 73.2 µM.

What about the TGI (OVCAR-8 ovarian) of the same molecule?
The TGI was over 100 µM.

And the TGI (TK-10 renal)?
Its TGI is over 100 µM.

What about the TGI (MDA-MB-435) of the same molecule?
The TGI was over 100 µM.

And the TGI (M14 melanoma)?
Its TGI is over 100 µM.

What about the TGI (HT29 colon) of the same molecule?
The TGI was over 100 µM.

What about the TGI (HCC-2998 colon) of the same molecule?
Its TGI is over 100 µM.

And the TGI (A498 renal)?
The TGI was over 100 µM.

What about the TGI (SNB-19 CNS) of the same molecule?
The TGI was over 100 µM.

What about the TGI (DU-145 prostate) of the same molecule?
The TGI was over 87.9 µM.

And the TGI (786-0 renal)?
The TGI was over 100 µM.

What about the TGI (MOLT-4 leukemia) of the same molecule?
Its TGI is over 74.8 µM.

And the TGI (SN12C renal)?
Its TGI is over 100 µM.

What about the TGI (UO-31 renal) of the same molecule?
Its TGI is over 88.2 µM.

And the TGI (RXF 393 renal)?
The TGI was over 100 µM.

And the TGI (UACC-257 melanoma)?
Its TGI is over 100 µM.

And the TGI (HOP-62 NSCLC)?
Its TGI is over 83.2 µM.

And the TGI (SNB-75 CNS)?
Its TGI is over 100 µM.

What about the TGI (NCI-H226 lung) of the same molecule?
The TGI was over 100 µM.

And the TGI (CAKI-1 renal)?
The TGI was over 100 µM.

And the TGI (COLO 205 colon)?
The TGI was 72.5 µM.

And the TGI (SK-MEL-28 melanoma)?
The TGI was over 100 µM.

What about the TGI (HOP-92 NSCLC) of the same molecule?
Its TGI is over 100 µM.

What about the TGI (NCI/ADR-RES ovarian) of the same molecule?
Its TGI is over 100 µM.

And the TGI (NCI-H460 lung)?
The TGI was over 100 µM.

And the TGI (SK-OV-3 ovarian)?
The TGI was over 100 µM.

What about the TGI (SF-539 CNS) of the same molecule?
The TGI was over 100 µM.
